# Key:
# STAT5 [1] = experiment: Jess Simple Western immunoassay of STAT5/pSTAT5 in MCF7 cells; format: cell-based, human; conditions: MCF7, 10 μM, 72 h
# Procedure: (§1) The impact of STAT5 activation on the mode of action was investigated in selected solid tumor cell lines as well.
# (§2) Protein extracts were prepared as previously described.[44] Protein expression was determined using the capillary-based Jess Simple Western detection system (ProteinSimple, BioTechne) according to the manufacturer’s instructions at default settings. […] Horseradish peroxidase (HRP)-conjugated secondary antirabbit antibody, which was included in the Jess Detection Module kit, was used. Data analysis was conducted using Compass for Simple Western 4.0 software (ProteinSimple, BioTechne).
# [2] = test system: IGROV-1 SP cells (ABCB1+); experiment: SP analysis (DCV, flow cytometry) in IGROV-1 SP cells; format: cell-based, human; conditions: 10 μM
# Source text: (§3) In recent studies, we described the side population (SP) phenotype as a marker that defines a heterogeneous cellular compartment with stem cell-characteristics in various cancer cell lines derived from solid tumors, such as ovarian cancer, breast cancer, and lung cancer.[26],[27]
# DU145-DR cells (ABCB1+) = experiment: SP analysis (DCV, flow cytometry) in DU145-DR cells; format: cell-based, human; conditions: 10 μM
# Source text: as §3
# STAT5 [3] = experiment: Jess Simple Western immunoassay of STAT5/pSTAT5 in IGROV-1 SP cells; format: cell-based, human; conditions: 10 μM, 72 h; for STAT5 protein expression: IGROV1 SP
# Procedure: as §1, §2
# IGROV-1 SP cells = experiment: Chemosensitizing to paclitaxel: metabolic activity of IGROV-1 SP cells (MTT); format: cell-based, human; conditions: compound 10 μM + PTX 10 nM, 72 h
# Procedure: (§4) The chemosensitizing efficacy was investigated in the ovarian and prostate cancer cell lines using the above-described metabolic activity assay. Paclitaxel (PTX) served as a reference (CTR) in A2780 V SP and IGROV-1 SP cells and docetaxel (DTX) in PC3-DR and D145-DR cells.
# (§5) COS-7 (2 × 10^3 cells per well), IGROV-1 SP (2.5 × 10^3 cells per well), A2780 V SP (1.5 × 10^3 cells per well), PC3-DR (4 × 10^3 cells per well), and DU145-DR (3 × 10^3 cells per well) cells were seeded in 96-well plates in triplicates and after 24 h, the compounds were added at the respective concentrations. K562-R and K562 cells (2 × 10^4 cells per well), were treated with the compounds 2 h after seeding. […] A modified MTT colorimetric assay (EZ4U kit, Biomedica) was used to determine the metabolic activity of the tested cells, according to the manufacturer’s instructions. Absorbance was measured and the optical density of the respective FCS-containing medium and of the substrate was subtracted to exclude nonspecific staining. Metabolic activity in the absence of the compounds (CTR, DMSO) was set to 100% as reference.
# STAT5 [4] = experiment: Jess Simple Western immunoassay of STAT5/pSTAT5 in A549 cells; format: cell-based, human; conditions: A549, 10 μM, 72 h
# Procedure: as §1, §2
# A549 cells (ABCC1+) = experiment: SP analysis (DCV, flow cytometry) in A549 cells; format: cell-based, human; conditions: A549, 10 μM
# Source text: as §3
# ABCB1 [5] = experiment: Jess Simple Western immunoassay of ABCB1 expression in K562-R cells; format: cell-based, human; conditions: 4 μM, 72 h
# Procedure: as §2
# STAT5 [6] = experiment: Jess Simple Western immunoassay of STAT5/pSTAT5 in K562-R cells; format: cell-based, human; conditions: 4 μM + imatinib 1 μM, 6 h
# Procedure: In the next step, the effects of the compounds (4 μM) on STAT5 in K562-R cells were examined.
# as §2
# [7] = target: T1, ABCB1 transporter in K562-R cells (Homo sapiens, UniProt P08183); experiment: Side population (SP) analysis, DCV staining, flow cytometry; conditions: 10 μM
# Procedure: (§7) SP analyses were performed as previously described[45] on a LSRFortessa flow cytometer (BD Biosciences, Vienna, Austria). Briefly, 1 × 10^6 cells/mL were stained with 10 μM Vybrant DyeCycleTM Violet (DCV; Molecular Probes, Eugene, OR) in the presence or absence of the investigated compounds for 90 min at 37 °C. […] Subsequently, the cells were washed and immediately analyzed using flow cytometry. The FlowJo 9.6 software was used for data analyses (Tree Star Software, Ashland, CA).
# [8] = test system: A2780 V SP cells (ABCB1+); experiment: SP analysis (DCV, flow cytometry) in A2780 V SP cells; format: cell-based, human; conditions: 10 μM
# Source text: as §3
# A2780 V SP cells = experiment: Chemosensitizing to paclitaxel: metabolic activity of A2780 V SP cells (MTT); format: cell-based, human; conditions: compound 10 μM + PTX 10 nM, 72 h
# Procedure: as §4, §5
# K562-R cells [9] = experiment: Chemosensitizing: metabolic activity of K562-R cells cotreated with imatinib (modified MTT assay); format: cell-based, human; conditions: 72 h
# Procedure: (§6) The potential reduction in cell viability was determined using the modified MTT assay.
# conc. 10 to 0.5 μM) over 72 h (Figure 3D).
# as §5
# PC3-DR cells (ABCB1+) = experiment: SP analysis (DCV, flow cytometry) in PC3-DR cells; format: cell-based, human; conditions: 10 μM
# Source text: as §3
# STAT5 [10] = experiment: Jess Simple Western immunoassay of STAT5/pSTAT5 in A2780 V SP cells; format: cell-based, human; conditions: 10 μM, 72 h
# Procedure: as §1, §2
# MCF7 cells (ABCG2+) = experiment: SP analysis (DCV, flow cytometry) in MCF7 cells; format: cell-based, human; conditions: MCF7, 10 μM
# Source text: as §3
# K562-R cells [11] = experiment: Metabolic activity of K562-R cells, compounds alone (modified MTT assay); format: cell-based, human; conditions: 10 μM, 72 h, without imatinib; vehicle control = 100%
# Procedure: as §6
# First, the compounds (10 μM) were applied alone to evaluate their effects per se.
# as §5
# [12] = target: T1, ABCB1 transporter in K562-R cells; conditions: 90 min, 10 μM
# Procedure: as §7
# [13] = set-up: method as in PMID 32759366; conditions: rat hepatocytes ref 30; cited from earlier work
# [14] = test system: primary human CML patient samples; experiment: Colony forming cell (CFC) assay, primary CML patient samples; format: cell-based; conditions: together with 1 μM of imatinib, once at the beginning of the 14 day assay; compound 10 μM
# Source text: Frozen peripheral blood mononuclear cells (PBMC) from TKI naïve CML patients and healthy controls were used for the CFC assay as described previously.[46] Briefly, thawed cells were resuspended a semisolid medium (Enriched MethocCult H4435, Stem Cell Technologies) supplemented with the respective compounds and cultured in small culture dishes for 2 weeks. Colonies were counted using an inverted microscope.
# DU145-DR cells = experiment: Chemosensitizing to docetaxel: metabolic activity of DU145-DR cells (MTT); format: cell-based, human; conditions: compound 10 μM + DTX 12.5 nM, 72 h
# Procedure: as §4, §5
# ABCB1 [15] = test system: ABCB1; set-up: method as in Weiss et al. 38; conditions: ref Weiss et al. 38; cited from earlier work
# [16] = set-up: method as in PMID 23054986; conditions: cited from earlier work
# PC3-DR cells = experiment: Chemosensitizing to docetaxel: metabolic activity of PC3-DR cells (MTT); format: cell-based, human; conditions: compound 10 μM + DTX 12.5 nM, 72 h
# Procedure: as §4, §5
# [17] = not told; cited from earlier work
# T1 sequence (P08183 whole entry): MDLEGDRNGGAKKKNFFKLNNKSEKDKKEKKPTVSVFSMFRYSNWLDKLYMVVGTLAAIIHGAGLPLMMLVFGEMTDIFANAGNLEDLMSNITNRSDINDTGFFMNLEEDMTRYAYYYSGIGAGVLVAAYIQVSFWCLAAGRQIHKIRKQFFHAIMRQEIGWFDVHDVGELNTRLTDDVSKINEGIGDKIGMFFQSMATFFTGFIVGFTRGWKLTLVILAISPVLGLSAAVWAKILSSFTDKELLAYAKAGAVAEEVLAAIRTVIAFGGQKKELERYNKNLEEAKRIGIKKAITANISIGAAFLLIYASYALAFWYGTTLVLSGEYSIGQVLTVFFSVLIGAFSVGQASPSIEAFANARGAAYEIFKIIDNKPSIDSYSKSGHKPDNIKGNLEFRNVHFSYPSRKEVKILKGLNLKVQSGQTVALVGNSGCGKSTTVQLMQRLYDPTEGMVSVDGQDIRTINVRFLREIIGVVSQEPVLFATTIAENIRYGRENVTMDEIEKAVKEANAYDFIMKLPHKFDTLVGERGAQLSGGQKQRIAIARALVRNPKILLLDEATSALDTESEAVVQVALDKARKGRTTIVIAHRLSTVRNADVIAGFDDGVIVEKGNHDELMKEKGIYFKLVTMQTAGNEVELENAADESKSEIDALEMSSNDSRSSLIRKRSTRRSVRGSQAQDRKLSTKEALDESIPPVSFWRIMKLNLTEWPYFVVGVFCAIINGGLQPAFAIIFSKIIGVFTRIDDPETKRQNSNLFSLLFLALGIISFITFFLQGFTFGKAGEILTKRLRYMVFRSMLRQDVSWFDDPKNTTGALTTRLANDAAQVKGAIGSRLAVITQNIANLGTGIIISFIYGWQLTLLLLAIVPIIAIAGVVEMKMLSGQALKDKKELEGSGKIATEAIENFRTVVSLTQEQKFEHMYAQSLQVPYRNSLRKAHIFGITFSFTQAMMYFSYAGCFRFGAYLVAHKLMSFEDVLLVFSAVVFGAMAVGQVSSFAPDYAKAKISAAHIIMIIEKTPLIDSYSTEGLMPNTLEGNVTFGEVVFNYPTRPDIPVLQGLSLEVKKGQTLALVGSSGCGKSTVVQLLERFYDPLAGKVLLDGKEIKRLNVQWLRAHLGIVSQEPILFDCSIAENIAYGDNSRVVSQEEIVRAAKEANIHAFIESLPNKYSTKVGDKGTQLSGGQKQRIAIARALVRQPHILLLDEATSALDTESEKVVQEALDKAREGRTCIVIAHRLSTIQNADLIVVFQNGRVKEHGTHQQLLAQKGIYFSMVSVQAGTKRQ
Structure (SMILES),effect on SP phenotype [2],effect on SP phenotype (DU145-DR cells (ABCB1+)),STAT5 protein expression (STAT5 [3]),viability / antimetabolic effect in combination with PTX (IGROV-1 SP cells),effect on SP phenotype (A549 cells (ABCC1+)),effect on SP phenotype [8],chemosensitizing to PTX therapy (A2780 V SP cells),"metabolic activity of K562-R cells, combination with imatinib (K562-R cells [9]; compound 10 μM + imatinib 1 μM)",effect on SP phenotype (PC3-DR cells (ABCB1+)),effect on SP phenotype (MCF7 cells (ABCG2+)),further results
"CCCc1nc2ccccc2n1Cc1ccc(-c2ccc(C(N)=O)cc2)cc1 [6c, 4′-((2-Propyl-1H-benzo[d]imidazole-1-yl)methyl)-[1,1′-biphenyl]-4-carboxamide]",effectively targeted the SP phenotype,effectively targeted the SP phenotype,significantly suppressed STAT5,increased the antimetabolic effect of PTX,nearly inactive,effectively targeted the SP phenotype,particularly sensitized,8–24%,effectively targeted the SP phenotype,nearly inactive,"phosphorylation status of STAT5 (STAT5 [1]): efficiently repressed the phosphorylation status of STAT5; phosphorylation status of STAT5 (STAT5 [3]; IGROV-1 SP): efficiently repressed the phosphorylation status of STAT5; phosphorylation status of STAT5 (STAT5 [4]): efficiently repressed the phosphorylation status of STAT5; ABCB1 protein expression (ABCB1 [5]): none of the compounds abrogated the ABCB1 protein expression; phosphorylation of STAT5 (STAT5 [6]): marked repression of the STAT5 phosphorylation; effect on SP phenotype / ABCB1 activity [7]: efficiently reduced the ABCB1 activity; relation of SP and NSP [7]: about 50%; EC50 (K562-R cells [9]; K562-R, + imatinib 1 μM, read-out: SC50 (drug concentration eliciting 50% of the maximum sensitizing effect)): 1.49 µM; phosphorylation status of STAT5 (STAT5 [10]): efficiently repressed the phosphorylation status of STAT5"
"CCCc1nc2c(C)cc(-c3nc4ccccc4n3C)cc2n1Cc1ccc(-c2ccccc2C(=O)O)cc1 [7a, telmisartan]",only modestly affected,only modestly affected,significantly suppressed STAT5,increased the antimetabolic effect of PTX,significantly inhibited the SP phenotype,only modestly affected,least active chemosensitizer,34–58%,only modestly affected,significantly inhibited the SP phenotype,"metabolic activity of K562-R cells, compound alone (K562-R cells [11]): inactive; percentage of cells within SP gate [12]: 76.0%; CLint [13]: about 23 μL/min/10^6 cells; number of colonies (CFC) [14]: virtually ineffective; metabolic activity of K562-R cells, combination with imatinib (K562-R cells [9]; compound 8 μM + imatinib 1 μM): 55%; chemosensitizing to DTX (antimetabolic activity) (DU145-DR cells): did not significantly reduce the metabolic activity; inhibition of ABCB1 (ABCB1 [15]): impeded ABCB1; reported aqueous solubility [16]: 9.9 µg/mL; chemosensitizing to DTX (antimetabolic activity) (PC3-DR cells): only marginally increased the antimetabolic activity of DTX; apparent permeability coefficient (Papp) [17]: 29 10^–6 cms^–1"
